Measurements reported in patent US20260049085A1, “CYCLIC COMPOUNDS AND METHODS OF USING SAME” (SCHRÖDINGER, INC., priority 2022, published 2026).

target: T1, full-length MALT1 protein His-MALT1(1-824) (Homo sapiens, UniProt Q9UDY8); experiment: MALT1 protease assay (Ac-LRSR-AMC tetrapeptide substrate, fluorescence); format: biochemical; conditions: 1 nM MALT1, 25 μM Ac-LRSR-AMC, 2 h pre-incubation, 8 hr incubation at RT
T1 construct: full-length MALT1 protein His-MALT1(1-824); His (N); made in house; host or cells: baculovirus-infected insect cells
T1 sequence (Q9UDY8 1-824): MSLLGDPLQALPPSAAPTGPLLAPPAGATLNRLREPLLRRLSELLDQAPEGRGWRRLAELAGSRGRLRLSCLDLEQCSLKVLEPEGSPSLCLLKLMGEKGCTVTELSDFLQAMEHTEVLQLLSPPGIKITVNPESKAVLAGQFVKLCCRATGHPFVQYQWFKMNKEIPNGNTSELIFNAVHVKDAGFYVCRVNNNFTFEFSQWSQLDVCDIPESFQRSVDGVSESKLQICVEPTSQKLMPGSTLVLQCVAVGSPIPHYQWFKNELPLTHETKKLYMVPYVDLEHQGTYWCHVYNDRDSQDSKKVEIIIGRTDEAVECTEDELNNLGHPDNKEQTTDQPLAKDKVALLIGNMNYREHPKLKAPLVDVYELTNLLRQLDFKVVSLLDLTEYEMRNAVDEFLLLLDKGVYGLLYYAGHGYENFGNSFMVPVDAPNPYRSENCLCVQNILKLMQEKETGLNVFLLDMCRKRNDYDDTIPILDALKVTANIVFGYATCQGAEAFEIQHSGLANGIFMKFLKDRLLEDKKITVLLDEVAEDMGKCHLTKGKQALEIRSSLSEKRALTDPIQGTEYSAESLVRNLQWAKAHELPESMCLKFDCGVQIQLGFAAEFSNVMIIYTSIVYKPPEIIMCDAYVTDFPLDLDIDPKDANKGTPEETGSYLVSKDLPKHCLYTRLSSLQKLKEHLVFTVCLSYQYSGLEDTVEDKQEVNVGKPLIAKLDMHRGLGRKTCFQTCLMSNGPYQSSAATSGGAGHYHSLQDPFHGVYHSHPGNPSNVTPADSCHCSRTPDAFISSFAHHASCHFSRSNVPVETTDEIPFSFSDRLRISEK
Summary of the method: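 Full-length His-MALT1(1-824) from baculovirus-infected insect cells (1 nM) was pre-incubated 2 h at RT with compounds (0.1% DMSO), then 25 μM Ac-LRSR-AMC added in 50 mM Tris pH 7.5, 600 mM sodium citrate, 1 mM DTT, 1 mM EDTA, 0.05% BSA. Fluorescence (ex 355/em 460 nm) read after 8 h at RT; IC50 by non-linear regression of % remaining activity.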

SMILES | IC50 [nM]
CC(F)(F)n1ccc([C@]2(C)C[C@@H](C(=O)Nc3cnc(-c4ncccn4)c(C(F)(F)F)c3)c3cnc4cc(F)nn4c32)n1 (single isomer, unassigned) [Example 165, (trans)-8-(1-(1,1-difluoroethyl)-1H-pyrazol-3-yl)-2-fluoro-8-methyl-N-(6-(pyrimidin-2-yl)-5-(trifluoromethyl)pyridin-3-yl)-7,8-dihydro-6H-cyclopenta[e]pyrazolo[1,5-a]pyrimidine-6-carboxamide] | ≥ 1000
CC(F)(F)n1ccc([C@]2(C)C[C@H](C(=O)Nc3cnc(-c4ncccn4)c(C(F)(F)F)c3)c3cnc4cc(F)nn4c32)n1 (single isomer, unassigned) [Example 166, (cis)-8-(1-(1,1-difluoroethyl)-1H-pyrazol-3-yl)-2-fluoro-8-methyl-N-(6-(pyrimidin-2-yl)-5-(trifluoromethyl)pyridin-3-yl)-7,8-dihydro-6H-cyclopenta[e]pyrazolo[1,5-a]pyrimidine-6-carboxamide] | 100 to 1000
CC(F)(F)n1ccc([C@@]2(C)C[C@@H](C(=O)Nc3cnc(-c4ncccn4)c(C(F)(F)F)c3)c3cnc4cc(F)nn4c32)n1 (single isomer, unassigned) [Example 167, (cis)-8-(1-(1,1-difluoroethyl)-1H-pyrazol-3-yl)-2-fluoro-8-methyl-N-(6-(pyrimidin-2-yl)-5-(trifluoromethyl)pyridin-3-yl)-7,8-dihydro-6H-cyclopenta[e]pyrazolo[1,5-a]pyrimidine-6-carboxamide] | 100 to 1000
CC(F)(F)n1ccc([C@@]2(C)C[C@H](C(=O)Nc3cnc(-c4ncccn4)c(Cl)c3)c3cnc4cc(F)nn4c32)n1 (single isomer, unassigned) [Example 168] | 10 to 100
CC(F)(F)n1ccc([C@]2(C)C[C@@H](C(=O)Nc3cnc(-c4ncccn4)c(Cl)c3)c3cnc4cc(F)nn4c32)n1 (single isomer, unassigned) [Example 169] | ≥ 1000
C[C@]1(c2cn(C(F)F)nn2)C[C@H](C(=O)Nc2cnc(-n3nccn3)c(Cl)c2)c2cnc3cc(F)nn3c21 (single isomer, unassigned) [Example 175] | 10 to 100
C[C@@]1(c2cn(C(F)F)nn2)C[C@@H](C(=O)Nc2cnc(-n3nccn3)c(Cl)c2)c2cnc3cc(F)nn3c21 (single isomer, unassigned) [Example 176] | ≥ 1000
C[C@]1(c2cnn(C(F)F)n2)C[C@H](C(=O)Nc2cnc(-n3nccn3)c(Cl)c2)c2cnc3cc(F)nn3c21 (single isomer, unassigned) [Example 177] | < 10
C[C@@]1(c2cnn(C(F)F)n2)C[C@@H](C(=O)Nc2cnc(-n3nccn3)c(Cl)c2)c2cnc3cc(F)nn3c21 (single isomer, unassigned) [Example 178] | 100 to 1000
COc1cc(NC(=O)[C@H]2C[C@](C)(c3ccn(C(F)F)n3)c3c2cnc2cc(F)nn32)cnc1-c1ncccn1 (single isomer, unassigned) [Example 179] | ≥ 1000
COc1cc(NC(=O)[C@@H]2C[C@@](C)(c3ccn(C(F)F)n3)c3c2cnc2cc(F)nn32)cnc1-c1ncccn1 (single isomer, unassigned) [Example 180] | 100 to 1000
COc1cc(NC(=O)[C@H]2C[C@@](C)(c3ccn(C(F)F)n3)c3c2cnc2cc(F)nn32)cnc1-c1ncccn1 (single isomer, unassigned) [Example 181] | ≥ 1000
C[C@]1(c2cnn(C(F)F)c2)C[C@H](C(=O)Nc2cnc(-c3ncc(F)cn3)c(C(F)(F)F)c2)c2cnc3cc(F)nn3c21 [Example 132, (6S,8R)-8-(1-(difluoromethyl)-1H-pyrazol-4-yl)-2-fluoro-N-(6-(5-fluoropyrimidin-2-yl)-5-(trifluoromethyl)pyridin-3-yl)-8-methyl-7,8-dihydro-6H-cyclopenta[e]pyrazolo[1,5-a]pyrimidine-6-carboxamide] | 10 to 100

Other lines, results leading:

IC50 [nM] | SMILES
< 10 | C[C@]1(c2ccn(C(F)F)n2)C[C@H](C(=O)Nc2cnc(-c3ncccn3)c(C(F)(F)F)c2)c2cnc3cc(Cl)nn3c21 (single isomer, unassigned) [Example 171]
≥ 1000 | C[C@@]1(c2ccn(C(F)F)n2)C[C@@H](C(=O)Nc2cnc(-c3ncccn3)c(C(F)(F)F)c2)c2cnc3cc(Cl)nn3c21 (single isomer, unassigned) [Example 172]
10 to 100 | C[C@@]1(c2ccn(C(F)F)n2)C[C@H](C(=O)Nc2cnc(-c3ncccn3)c(C(F)(F)F)c2)c2cnc3cc(Cl)nn3c21 (single isomer, unassigned) [Example 173]
100 to 1000 | C[C@]1(c2ccn(C(F)F)n2)C[C@@H](C(=O)Nc2cnc(-c3ncccn3)c(C(F)(F)F)c2)c2cnc3cc(Cl)nn3c21 (single isomer, unassigned) [Example 174]
≥ 1000 | COc1cc(NC(=O)[C@@H]2C[C@](C)(c3ccn(C(F)F)n3)c3c2cnc2cc(F)nn32)cnc1-c1ncccn1 (single isomer, unassigned) [Example 182]
10 to 100 | Cc1cc(NC(=O)C2CC(C)(c3ccn(C(F)F)n3)c3c2cnc2cc(F)nn32)cnc1-c1ncccn1 (single isomer, unassigned) [Example 183]
≥ 1000 | Cc1cc(NC(=O)C2CC(C)(c3ccn(C(F)F)n3)c3c2cnc2cc(F)nn32)cnc1-c1ncccn1 (single isomer, unassigned) [Example 184]
< 10 | C[C@]1(c2ccn(C(F)F)n2)C[C@H](C(=O)Nc2ccc(-c3ncccn3)c(C(F)(F)F)c2)c2cnc3cc(F)nn3c21 (single isomer, unassigned) [Example 185]
≥ 1000 | C[C@@]1(c2ccn(C(F)F)n2)C[C@@H](C(=O)Nc2ccc(-c3ncccn3)c(C(F)(F)F)c2)c2cnc3cc(F)nn3c21 (single isomer, unassigned) [Example 186]
10 to 100 | C[C@@]1(c2ccn(C(F)F)n2)C[C@H](C(=O)Nc2ccc(-c3ncccn3)c(C(F)(F)F)c2)c2cnc3cc(F)nn3c21 (single isomer, unassigned) [Example 187]
100 to 1000 | C[C@]1(c2ccn(C(F)F)n2)C[C@@H](C(=O)Nc2ccc(-c3ncccn3)c(C(F)(F)F)c2)c2cnc3cc(F)nn3c21 (single isomer, unassigned) [Example 188]
10 to 100 | C[C@]1(c2ccn(C(F)F)n2)C[C@H](C(=O)Nc2ccc(-c3ncccn3)c(Cl)c2)c2cnc3cc(F)nn3c21 (single isomer, unassigned) [Example 189]
≥ 1000 | C[C@@]1(c2ccn(C(F)F)n2)C[C@@H](C(=O)Nc2ccc(-c3ncccn3)c(Cl)c2)c2cnc3cc(F)nn3c21 (single isomer, unassigned) [Example 190]
≥ 1000 | C[C@@]1(c2ccn(C(F)F)n2)C[C@H](C(=O)Nc2ccc(-c3ncccn3)c(Cl)c2)c2cnc3cc(F)nn3c21 (single isomer, unassigned) [Example 191]
100 to 1000 | C[C@]1(c2ccn(C(F)F)n2)C[C@@H](C(=O)Nc2ccc(-c3ncccn3)c(Cl)c2)c2cnc3cc(F)nn3c21 (single isomer, unassigned) [Example 192]
10 to 100 | CC1(c2ccn(C(F)F)n2)CC(C(=O)Nc2cnc(-c3ncccn3)c(C(F)F)c2)c2cnc3cc(F)nn3c21 (single isomer, unassigned) [Example 193]
≥ 1000 | CC1(c2ccn(C(F)F)n2)CC(C(=O)Nc2cnc(-c3ncccn3)c(C(F)F)c2)c2cnc3cc(F)nn3c21 (single isomer, unassigned) [Example 194]
